The record followed here is ChEMBL document CHEMBL1201862, “PubChem BioAssay data set” (2004).

The structures appear in SMILES notation.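 Grown in 96-well plates, cells were treated for 48 hours with each compound at five concentrations. Insufficient inhibition: endpoint recorded as highest concentration tested. The concentration for 50% growth inhibition is given as GI50.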 Activity calls are given as the source filed them. No stated cut-off is given here; in the data, active = GI50 up to about 1.1 µM and inactive = higher.

Among the test systems are 786-0; CCRF-CEM; HCT-116; HL-60; HT-29; KM12; MCF7; MDA-MB-231; MDA-MB-435; MDA-N; NCI-H522; OVCAR-8; PC-3; RPMI-8226; SF-268; SK-MEL-28; SK-MEL-2; SK-MEL-5; T47D; UACC-62.
What all share (assay): DTP human tumour cell line panel, 48 h

As for `Nc1nc(Cl)cc(NCC2(CO)COC2)n1`, the GI50 with 786-0, in the test on CCRF-CEM, in the test with HCT-116, in the test on HL-60, in the test on HT-29 and with KM12 was > 100 µM (inactive) throughout. In addition, the GI50 in the test on MCF7, in the test on MDA-MB-231, in the test with MDA-MB-435, in the test with MDA-N, in the test with NCI-H522 and in the test with OVCAR-8 was > 100 µM (inactive) each time. Further, the GI50 with PC-3, in the test on RPMI-8226, with SF-268, with SK-MEL-28, in the test on SK-MEL-2 and in the test with SK-MEL-5 was > 100 µM (inactive) throughout. Besides, the GI50 in the test on T47D is 53.8 µM (inactive); in the test on UACC-62, > 100 µM (inactive).
`NC(=O)c1ccc(S(=O)(=NS(=O)(=O)c2ccccc2)c2ccc(C(N)=O)cc2)cc1`: the GI50 in the test with 786-0, with CCRF-CEM, with HCT-116, in the test on HL-60, with HT-29 and with KM12 was > 100 µM (inactive) throughout. In addition, the GI50 in the test with MCF7, in the test with MDA-MB-231, in the test with MDA-MB-435, with MDA-N, in the test with NCI-H522 and in the test on OVCAR-8 was > 100 µM (inactive) each time. In addition, the GI50 in the test with PC-3, in the test on RPMI-8226, with SF-268, with SK-MEL-28, in the test with SK-MEL-2 and in the test on SK-MEL-5 was > 100 µM (inactive) each time. The GI50 in the test on T47D and in the test on UACC-62 was > 100 µM (inactive) in each case.
With `O=C1C(Br)=C(Br)C(=O)c2c(O)ccc(O)c21`, the GI50 in the test with 786-0 is 1.56 µM (inactive); in the test on CCRF-CEM it was 0.189 µM (active); in the test with HCT-116 it was 3.56 µM (inactive); in the test with HL-60 it was 0.168 µM (active); in the test on HT-29 it was 3.15 µM (inactive); with KM12, 11.4 µM (inactive). Besides, the GI50 in the test on MCF7 was 2.42 µM (inactive); with MDA-MB-231, 2.64 µM (inactive); in the test with MDA-MB-435 it was 3.07 µM (inactive); with MDA-N, 2.49 µM (inactive); in the test on NCI-H522, 0.287 µM (active); in the test with OVCAR-8 it was 8.83 µM (inactive). In addition, the GI50 was 15.4 µM (inactive) in the test on PC-3; 0.721 µM (active) with RPMI-8226; 16.9 µM (inactive) with SF-268; 2.06 µM (inactive) in the test with SK-MEL-28; 26.2 µM (inactive) in the test with SK-MEL-2; 9.14 µM (inactive) with SK-MEL-5. The GI50 in the test on T47D was 2.19 µM (inactive); in the test on UACC-62 it was 11.2 µM (inactive).
For `CN(C)c1ccc(/C=C(\NC(=O)c2ccccc2)C(=O)Nc2ccccc2C(=O)NCc2ccccc2)cc1`, the GI50 is > 100 µM (inactive) in the test with 786-0; 62.4 µM (inactive) in the test on CCRF-CEM; > 100 µM (inactive) in the test on HCT-116; 40.6 µM (inactive) with HL-60; > 100 µM (inactive) in the test with HT-29; 58.5 µM (inactive) in the test with KM12. Also, the GI50 is > 100 µM (inactive) in the test on MCF7; > 100 µM (inactive) in the test with MDA-MB-231; > 100 µM (inactive) with MDA-MB-435; > 100 µM (inactive) with MDA-N; 27.6 µM (inactive) in the test on NCI-H522; 59.4 µM (inactive) in the test with OVCAR-8. Further, the GI50 with PC-3 was > 100 µM (inactive); with RPMI-8226 it was 67.5 µM (inactive); with SF-268, > 100 µM (inactive); with SK-MEL-28, > 100 µM (inactive); in the test on SK-MEL-2 it was > 100 µM (inactive); in the test with SK-MEL-5 it was 41.9 µM (inactive). In addition, the GI50 in the test on T47D and in the test with UACC-62 was > 100 µM (inactive) in each case.
Take `C=CCN1C(=O)/C(=C/c2ccc(C)cc2)NC1=S`: the GI50 in the test on 786-0 is > 100 µM (inactive); in the test with CCRF-CEM, 33 µM (inactive); in the test on HCT-116, > 100 µM (inactive); in the test with HL-60, 20 µM (inactive); with HT-29 it was 96.6 µM (inactive); with KM12, 97.7 µM (inactive). In addition, the GI50 was 70.6 µM (inactive) in the test with MCF7; 60.1 µM (inactive) with MDA-MB-231; 76.6 µM (inactive) with MDA-MB-435; 94.8 µM (inactive) in the test on MDA-N; 43 µM (inactive) in the test on NCI-H522; > 100 µM (inactive) in the test with OVCAR-8. Further, the GI50 is > 100 µM (inactive) with PC-3; 39.4 µM (inactive) in the test on RPMI-8226; > 100 µM (inactive) in the test with SF-268; > 100 µM (inactive) in the test with SK-MEL-28; > 100 µM (inactive) in the test with SK-MEL-2; 39.6 µM (inactive) in the test with SK-MEL-5. In addition, the results for the GI50 in the test with T47D and in the test with UACC-62 were 67.1 µM (inactive) and 60.1 µM (inactive), respectively.
Regarding `C[C@]12CC[C@H]3[C@@H](CCC4=CC(=O)C=C[C@@]43OC(=O)C(F)(F)F)[C@@H]1CCC2=O`, the GI50 in the test on 786-0 is > 45.6 µM (inactive); in the test with CCRF-CEM, > 100 µM (inactive); in the test on HCT-116 it was > 34.7 µM (inactive); with HL-60, > 100 µM (inactive); with HT-29, > 100 µM (inactive); in the test on KM12, > 100 µM (inactive). The GI50 in the test on MCF7 was > 100 µM (inactive); in the test on MDA-MB-231, > 100 µM (inactive); in the test on MDA-MB-435 it was > 100 µM (inactive); with MDA-N, > 100 µM (inactive); in the test with NCI-H522 it was > 84.1 µM (inactive); with OVCAR-8, > 100 µM (inactive). Also, the GI50 in the test with PC-3, in the test on RPMI-8226, in the test on SF-268, in the test on SK-MEL-28, in the test with SK-MEL-2 and in the test with SK-MEL-5 was > 100 µM (inactive) in each case. Also, the GI50 in the test on T47D is > 100 µM (inactive); in the test on UACC-62 it was > 85.5 µM (inactive).
As for `NC(C(=O)O)C(O)c1c[nH]cn1` (stereo not given), the GI50 in the test with 786-0, in the test with CCRF-CEM, in the test on HCT-116, in the test on HL-60, in the test with HT-29 and with KM12 was > 100 µM (inactive) throughout. For the same molecule, the GI50 in the test with MCF7, with MDA-MB-231, in the test with MDA-MB-435, in the test with MDA-N, in the test on NCI-H522 and in the test with OVCAR-8 was > 100 µM (inactive) each time. The GI50 with PC-3, in the test on RPMI-8226, in the test on SF-268, in the test on SK-MEL-28, in the test on SK-MEL-2 and in the test on SK-MEL-5 was > 100 µM (inactive) throughout. Moreover, the GI50 with T47D and with UACC-62 was > 100 µM (inactive) in each case.
